Results reported in PMC4661537 (2015).

Tests used:
[1] = test system: Spi-tRNA (RNA, aptamer) GCCCGGAUAGCUCAGUCGGUAGAGCAGCGGCCGGACGCAACUGAAUGAAAUGGUGAAGGACGGGUCCAGGUGUGGCUGCUUCGGCAGUGCAGCUUGUUGAGUAGAGUGUGAGCUCCGUAACUAGUCGCGUCCGGCCGCGGGUCCAGGGUUCAAGUCCCUGUUCGGGCGCCA; test: fluorescence activation; settings: K+ 125 mM, Mg2+ 5 mM (folding buffer); fluorescence slightly higher than single Spinach
[2] = test system: Spi (single Spinach aptamer, 24-2) (RNA, aptamer) GACGCAACUGAAUGAAAUGGUGAAGGACGGGUCCAGGUGUGGCUGCUUCGGCAGUGCAGCUUGUUGAGUAGAGUGUGAGCUCCGUAACUAGUCGCGUC; test: fluorescence association kinetics (koff/kon); settings: K+ 125 mM, Mg2+ 5 mM (folding buffer); 40 mM K-HEPES pH 7.5; 40 nM aptamer, DFHBI 200-600 nM; mean over concentrations; biphasic; per site
[3] = test system: Spi-8R (RNA, aptamer) UAGACGGCAUGGGGAGACGCGACCGAAAUGGUGAAGGACGGGUCCAGUGCUUCGGCACUGUUGAGUAGAGUGUGAGCUCCGUAACUGGUCGCGUCACGUAAGAUGCUCCGGUUAGGGAGACGCGACCGAAAUGGUGAAGGACGGGUCCAGUGCUUCGGCACUGUUGAGUAGAGUGUGAGCUCCGUAACUGGUCGCGUCACUGAUGUACCGUUGAGCAGGGAGACGCGACCGAAAUGGUGAAGGACGGGUCCAGUGCUUCGGCACUGUUGAGUAGAGUGUGAGCUCCGUAACUGGUCGCGUCACUCGCUAGAGCAUGGUUUGGGAGACGCGACCGAAAUGGUGAAGGACGGGUCCAGUGCUUCGGCACUGUUGAGUAGAGUGUGAGCUCCGUAACUGGUCGCGUCACUGGGGCACGCCGUCUGGGGGAGACGCGACCGAAAUGGUGAAGGACGGGUCCAGUGCUUCGGCACUGUUGAGUAGAGUGUGAGCUCCGUAACUGGUCGCGUCACUUACUGCGACCGCAAUAGGGAGACGCGACCGAAAUGGUGAAGGACGGGUCCAGUGCUUCGGCACUGUUGAGUAGAGUGUGAGCUCCGUAACUGGUCGCGUCACGCGCGCAACCGGGUAGAGGGAGACGCGACCGAAAUGGUGAAGGACGGGUCCAGUGCUUCGGCACUGUUGAGUAGAGUGUGAGCUCCGUAACUGGUCGCGUCACGUAACUCACGGCGCUAUGGGAGACGCGACCGAAAUGGUGAAGGACGGGUCCAGUGCUUCGGCACUGUUGAGUAGAGUGUGAGCUCCGUAACUGGUCGCGUC; test: fluorescence association kinetics (koff/kon); settings: K+ 125 mM, Mg2+ 5 mM (folding buffer); 40 mM K-HEPES pH 7.5; 10 nM RNA (34.8 nM folded aptamer), DFHBI 200-600 nM; per aptamer; biphasic; per site

binding [1]: yes
KD [2]: 303 ± 22 nM
KD [3]: 246 ± 67 nM
SMILES: CC1=N/C(=C\c2cc(F)c(O)c(F)c2)C(=O)N1C
